From paper PMC6332359, “Insecticidal and Nematicidal Activities of Novel Mimosine Derivatives” (Molecules, 2015)
“And” between values parts separate entries of the source, which are not always exact repeats. Equal entries are not always repeated. Where two headings read alike, the source gives them in different places.

How the values were obtained:
[1] = tested on: Caenorhabditis elegans; experiment: Nematicidal activity assay, 96-well microplate method; type: in vivo
Experimental: The nematicidal activity assay was conducted according to previously described procedures with minor modifications. The nematode Caenorhabditis elegans was cultivated on nematode growth medium (NGM) [3 g NaCl, 15 g agar, 2.5 g polypeptone, 136.1 g KH2OP4, 17.9 g KOH, 1 mL 1 M MgSO4, 1 mL 1 M CaCl2, 1 mL cholesterol (5 mg/mL), and 500 μL ampicillin (100 μg/mL)] plate covered with Escherichia coli strain OP50. The ampicillin-resistant OP50 was used as a feed source to prevent cross-contamination of the nematode culture. The NGM plates contained high densities of worms after 4 days incubation at 20 °C. For preparation of synchronous worm culture, worms were rinsed from the agar plate with S-basal buffer (5.85 g NaCl, 1 g K2HPO4, 6 g KH2PO4, and 1 mL cholesterol [5 mg/mL ethanol]/L), washed twice with S-basal buffer, and added to household bleach/10 N NaOH solution. The supernatant was shaken for 10–15 min, washed three times by centrifugation for 1 min at 3000 rpm, and then resuspended in S-basal buffer. One hundred microliters of worm/OP50 (1.2 × 10^9 bacteria/mL) solution was transferred into each well of a 96-well plate, and 20 μL sample stock solution was added to give final concentrations 25, 50, 100, 250, and 500 μM. The plate was shaken thoroughly for 2–3 min and incubated at 20 °C. Water was used as a negative control. The experiment was performed using four replicates of each treatment and was repeated two times. Dead and active nematodes were recorded after 48 h treatment. Nematode mortality rate was calculated as a percentage in comparison with the control group.

[2] = tested on: termites; experiment: No-choice contact assay against termites; type: in vivo; settings: no-choice contact method, seven days treatment
Experimental: The no-choice bioassay method as described by Tawata et al. was used to evaluate insecticidal activity. […] Filter paper treated with ethanol and acetone was used as the control. After removing the solvent from treated filter paper by air drying at ambient temperature for 24 h, 20 termites were placed onto each paper. The dishes were covered and placed in incubator at ±23 °C. A few drops of distilled water were supplied daily to the bottom edge of each petri dish to maintain moisture during the experiment. The experiment was performed using four replicates of each treatment and was repeated two times. Mortality was evaluated after seven days treatment. […] Insect mortality rate was calculated as a percentage in comparison with the control group. Rotenone and fenitrothion were used as positive controls.

[3] = tested on: termites; experiment: Topical assay against termites (acute toxicity); type: in vivo; settings: for Insecticidal activity relative to mimosine: higher than mimosine, from Table 1 LD50; for LD50 against termites by topical application: worker termites, mortality after 48 h, mean ± SE of four replications
Experimental: An acute toxicity bioassay was performed by topical application to worker termites. A series of seven different doses (0.25, 0.5, 1.5, 2.5, 7.5, 12.5, and 25 μg/termite) was prepared in ethanol solution for each tested sample. Aliquots (0.5 μL) of diluted samples were applied topically to the abdomens of worker termites. Controls were treated with 0.5 μL ethanol only. Termites were transferred into petri dishes (4.2-cm diameter) lined with filter paper and kept in an incubator at 23–25 °C. A few drops of distilled water were supplied daily to the bottom edge of each dish to maintain moisture during the experiment. Four replicates of 20 termites each were used per treatment. Fenitrothion and rotenone were used as positive controls. Mortality of insects was evaluated after 48 h treatment. […] LD50 values were calculated by probit analysis using Graphpad Prism 6.01 (GraphPad, La Jolla, CA, USA).

[4] = tested on: acetylcholinesterase (AChE) from termite whole bodies; experiment: Acetylcholinesterase (AChE) inhibition, modified Ellman's method; type: biochemical, termites; settings: crude enzyme from termite whole bodies; for IC50: pH 8.0, 25 °C, read-out: IC50 against AChE
Experimental: Whole bodies of termites (20 mg) were homogenized in 1 mL of 0.1 M phosphate buffer (pH 8.0), and the homogenate was centrifuged at 12,000 rpm for 20 min. The supernatant was used as the enzyme source. All procedural steps for preparing the crude enzyme were performed at 4 °C [26]. The AChE activity was measured using the modified Ellman’s method. Twenty-five microliters of sample was transferred into each well of a 96-well microplate containing 125 μL 0.1 M phosphate buffer (pH 8.0), and 30 μL of the enzyme solution was added to each well. The mixture was incubated for 10 min at 25 °C, after which 50 μL of 5,5′-dithiobis-(2-nitrobenzoic acid) (final concentration 0.4 mM) and 25 μL of acetylthiocholine iodide (final concentration 1 mM) were added. The control was treated by adding 25 μL water. Enzyme activity was measured for 20 min at 412 nm. The AChE inhibition assay was performed using four replicates of each treatment and was repeated two times. The inhibition rate of AChE activity was calculated as a percentage as follows: Inhibition (%) = (Ao − AE)/Ao × 100(1) where Ao is the absorbance of the control, and AE is the absorbance of the tested sample.

[5] = Caenorhabditis elegans, C. elegans, 48 h treatment, 20 °C, read-out: Nematicidal activity IC50
[6] = read-out: Nematicidal activity IC50, C. elegans, 48 h treatment, 20 °C

| SMILES | IC50 [1, 5] | Mortality (%) ([2]; 50 μg/mL) | Mortality (%) ([2]; 100 μg/mL) | Mortality (%) ([2]; 250 μg/mL) | Insecticidal activity relative to mimosine [3] | LD50 against termites by topical application [3] | IC50 [1, 6] | AChE inhibitory activity (in words) [4] | IC50 [4] | IC50 ([1]; Caenorhabditis elegans, 48 h, read-out: Nematicidal activity IC50, C. elegans, 48 h treatment, 20 °C) | Mortality (%) ([2]; 5 μg/mL) | Mortality (%) ([2]; 10 μg/mL) | Mortality (%) ([2]; 15 μg/mL) |
| --- | --- | --- | --- | --- | --- | --- | --- | --- | --- | --- | --- | --- | --- |
| [2H]C([2H])(O)[C@@H](N)Cn1ccc(=O)c(O)c1 [D-mimosinol, deuterated mimosinol] | 390 µM | 33.1 ± 1.9 de % | 53.8 ± 3.8 de % | 60.6 ± 0.6 cd % | > 30 times | 1.8 ± 0.3 d μg/insect | – | – | – | – | – | – | – |
| N[C@H](CO)Cn1ccc(=O)c(O)c1 [Mimosinol, mimosinol] | 376 µM | 38.1 ± 1.3 cde % | 52.5 ± 2.7 de % | 68.5 ± 0.6 c % | > 30 times | 1.2 ± 0.2 de μg/insect | – | – | – | – | – | – | – |
| CCCOP1(=S)N[C@@H](Cn2ccc(=O)c(O)c2)CO1 (stereo partly drawn) [Compound 2c, 3-Hydroxy-1-(((4S)-2-propoxy-2-sulfido-1,3,2-oxazaphospholidin-4-yl)methyl)pyridin-4(1H)-one] | – | 29.4 ± 1.9 e % | 44.4 ± 1.9 e % | 52.5 ± 3.8 d % | – | 3.1 ± 0.5 b μg/insect | 218 µM | – | – | – | – | – | – |
| NC(Cn1ccc(=O)c(O)c1)C(=O)O (stereo not drawn) [Mimosine, β-[N-(3-hydroxy-4-oxypyridyl)]-α-aminopropionic acid] | 16.8 µM | 2.5 ± 1.1 f % | 7.5 ± 1.0 f % | 9.1 ± 2.0 e % | – | 54.1 ± 5.9 a μg/insect | – | not active | 1530 µM | – | – | – | – |
| O=c1cc(CO)occ1O [kojic acid] | 328 µM | – | – | – | – | – | – | not active | 5480 µM | – | – | – | – |
| CCOP1(=S)N[C@@H](Cn2ccc(=O)c(O)c2)CO1 (stereo partly drawn) [Compound 2b, 1-(((4S)-2-ethoxy-2-sulfido-1,3,2-oxazaphospholidin-4-yl)methyl)-3-hydroxypyridin-4(1H)-one] | – | 42.5 ± 2.5 bcd % | 52.5 ± 2.5 de % | 63.8 ± 0.0 c % | – | 2.1 ± 0.4 c μg/insect | 187 µM | – | – | – | – | – | – |
| C=C(C)[C@H]1Cc2c(ccc3c2O[C@@H]2COc4cc(OC)c(OC)cc4[C@@H]2C3=O)O1 [Rotenone, rotenone, reference compound] | – | 48.8 ± 0.9 bc % | 68.1 ± 1.3 bc % | 80.0 ± 0.9 b % | – | 0.8 ± 0.2 ef μg/insect | – | – | – | – | – | – | – |
| COP1(=S)N[C@@H](Cn2ccc(=O)c(O)c2)CO1 (stereo partly drawn) [Compound 2a, 3-Hydroxy-1-(((4S)-2-methoxy-2-sulfido-1,3,2-oxazaphospholidin-4-yl)methyl)pyridin-4(1H)-one] | – | 48.8 ± 2.5 bc % | 70.6 ± 0.6 b % | 82.5 ± 1.3 ab % | – | 1.2 ± 0.2 de μg/insect | 252 µM | – | – | – | – | – | – |
| CCOP1(=S)N[C@@H](Cn2ccc(=O)c(O)c2)CO1 (stereo partly drawn) [Compound 1b, 1-(((4S)-2-Ethoxy-2-sulfido-1,3,2-oxazaphospholidin-4-yl)methyl)-3-hydroxypyridin-4(1H)-one] | – | 52%–62% and 52.5 ± 3.5 ab % | 71%–88% and 71.9 ± 1.3 b % | 84.4 ± 2.2 ab % | – | 0.7 μg/insect and 0.7 ± 0.1 ef μg/insect | 50.2 µM | – | 104 µM | – | – | – | – |
| CCCOP1(=S)N[C@@H](Cn2ccc(=O)c(O)c2)CO1 (stereo partly drawn) [Compound 1c, 3-Hydroxy-1-(((4S)-2-propoxy-2-sulfido-1,3,2-oxazaphospholidin-4-yl)methyl)pyridin-4(1H)-one] | – | 45.6 ± 0.4 bc % | 59.4 ± 1.3 cd % | 77.5 ± 0.9 b % | – | 0.8 ± 0.1 ef μg/insect | – | – | – | 116 µM | – | – | – |
| COP1(=S)N[C@@H](Cn2ccc(=O)c(O)c2)CO1 (stereo partly drawn) [Compound 1a, 3-Hydroxy-1-(((4S)-2-methoxy-2-sulfido-1,3,2-oxazaphospholidin-4-yl)methyl)pyridin-4(1H)-one] | – | 52%–62% and 62.5 ± 1.8 a % | 71%–88% and 88.8 ± 0.9 a % | 90.6 ± 1.3 a % | – | 0.5 μg/insect and 0.5 ± 0.1 fg μg/insect | 31.8 µM | – | 95.9 µM | – | – | – | – |
| COP(=S)(OC)Oc1ccc([N+](=O)[O-])c(C)c1 [Fenitrothion, reference compound] | – | – | – | – | – | 0.025 ± 0.0 g μg/insect | – | – | 182 µM | – | 26.9 ± 1.3% | 69.4 ± 0.6% | 83.8 ± 1.9% |
